From the supplement of paper PMC11061612

Legend:
Experiment in all cases: combination Emax (second highest fraction inhibited in the dose matrix, 72 h); higher = more inhibition; extreme values may be limits of the assay
[1] = test system: LNZTA3WT4 (Low Grade Glioma)
Method in brief: (§1)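 Cell lines in DMEM/F12 or RPMI with 10% FBS were plated in 1536-well plates, held 24 hours at 37°C, 5% CO2, then given two-drug dose matrices for 72 hours (DMSO typically 0.2%). Viability was read by CellTiter-Glo 2.0 luminescence and scaled as inhibition from 0 (vehicle wells) to 1 (blank wells). Combination Emax is the second-highest inhibition in the matrix; Bliss excess is observed combination effect minus expected EA + EB − EA·EB, EA and EB being single-agent effects.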

[2] = test system: KYAE-1 (Esophageal Adenocarcinoma)
Method in brief: as §1

[3] = test system: FTC-133 (Thyroid Gland Carcinoma)
Method in brief: as §1

[4] = test system: Hs-746T (Gastric Carcinoma)
Method in brief: as §1

[5] = test system: NCI-H209 (Small Cell Lung Carcinoma)
Method in brief: as §1

CAL-72 (Osteosarcoma) = test system: CAL-72 (Osteosarcoma)
Method in brief: as §1

LOXIMVI (Melanoma) = test system: LOXIMVI (Melanoma)
Method in brief: as §1

BE2-M17 (Neuroblastoma) = test system: BE2-M17 (Neuroblastoma)
Method in brief: as §1

[6] = test system: NCI-H524 (Small Cell Lung Carcinoma)
Method in brief: as §1

A673 (Ewing's Sarcoma) = test system: A673 (Ewing's Sarcoma)
Method in brief: as §1

[7] = test system: NCI-H1568 (Lung Adenocarcinoma)
Method in brief: as §1

[8] = test system: KMRC-20 (Kidney Carcinoma)
Method in brief: as §1

[9] = test system: CAL-33 (Oral Cavity Carcinoma)
Method in brief: as §1

[10] = test system: SW1710 (Bladder Carcinoma)
Method in brief: as §1

[11] = test system: WSU-NHL (B-Cell Non-Hodgkin's Lymphoma)
Method in brief: as §1

[12] = test system: OVCAR-5 (Ovarian Carcinoma)
Method in brief: as §1

[13] = test system: NUGC-4 (Gastric Carcinoma)
Method in brief: as §1

[14] = test system: OV-56 (Ovarian Carcinoma)
Method in brief: as §1

[15] = test system: TGBC1TKB (Biliary Tract Carcinoma)
Method in brief: as §1

[16] = test system: HuCCT1 (Biliary Tract Carcinoma)
Method in brief: as §1

| SMILES | combination Emax [1] | combination Emax [2] | combination Emax [3] | combination Emax [4] | combination Emax [5] | combination Emax (CAL-72 (Osteosarcoma)) | combination Emax (LOXIMVI (Melanoma)) | combination Emax (BE2-M17 (Neuroblastoma)) | combination Emax [6] | combination Emax (A673 (Ewing's Sarcoma)) | combination Emax [7] | combination Emax [8] | combination Emax [9] | combination Emax [10] | combination Emax [11] | combination Emax [12] | combination Emax [13] | combination Emax [14] | combination Emax [15] | combination Emax [16] |
| --- | --- | --- | --- | --- | --- | --- | --- | --- | --- | --- | --- | --- | --- | --- | --- | --- | --- | --- | --- | --- |
| C[C@@H](c1ccc2nccn2c1)n1nnc2ncc(-c3cnn(C)c3)nc21 [Savolitinib] + Cc1c2c(nn1C)CSCc1cc(n(C)n1)CSc1cc(c3ccccc3c1)OCCCc1c(C(=O)O)n(C)c3c-2c(Cl)ccc13 [AZD5991] (first compound max 1 µM, 7x7, partner max 1 µM) | 0.222 | 0.137 | 0.176 | 0.652 | 0.323 | 0.189 | 0.228 | 0.129 | 0.351 | 0.302 | 0.147 | 0.195 | 0.181 | 0.105 | 0.743 | 0.137 | 0.221 | 0.151 | 0.159 | 0.117 |
| CN(CCO)CC[C@H](CSc1ccccc1)Nc1ccc(S(=O)(=O)NC(=O)c2ccc(N3CCC([C@@H](O)c4ccccc4-c4ccc(Cl)cc4)CC3)cc2)cc1S(=O)(=O)C(F)(F)F [AZD4320] + Cc1cc2ncnn2cc1Nc1ncc2c(n1)n(C1CCOCC1)c(=O)n2C [AZD7648] (first compound max 1 µM, 7x7, partner max 10 µM) | 0.132 | 0.279 | 0.491 | 0.347 | 1 | 0.382 | 0.343 | 0.369 | 0.822 | 0.937 | 0.22 | 0.157 | 0.363 | 0.131 | 0.86 | 0.17 | 0.329 | 0.149 | 0.577 | 0.26 |
| Cc1cc2ncnn2cc1Nc1ncc2c(n1)n(C1CCOCC1)c(=O)n2C [AZD7648] + C=CCn1c(=O)c2cnc(Nc3ccc(N4CCN(C)CC4)cc3)nc2n1-c1cccc(C(C)(C)O)n1 [AZD1775] (first compound max 10 µM, partner max 1 µM) | 0.717 | 0.574 | 0.633 | 0.652 | 0.743 | 0.649 | 0.668 | 0.704 | 0.808 | 0.594 | 0.453 | 0.53 | 0.864 | 0.408 | 1 | 0.412 | 0.359 | 0.307 | 0.335 | 0.692 |
| COc1cc2ncnc(Nc3ccc(F)c(Cl)c3)c2cc1OCCCN1CCOCC1 [Gefitinib] + CC(C)n1c(=O)n(C)c2cnc3cc(F)c(-c4ccc(OCCCN5CCCCC5)nc4)cc3c21 [AZD1390] (first compound max 10 µM, 7x7, partner max 0.3 µM) | 0.129 | 0.646 | 0.0388 | 0.0968 | 0.384 | 0.109 | 0.32 | 0.147 | 0.139 | 0.162 | 0.318 | 0.173 | 0.42 | 0.228 | 0.337 | 0.203 | 0.481 | 0.0799 | 0.263 | 0.389 |
| C[C@@H](c1ccc2nccn2c1)n1nnc2ncc(-c3cnn(C)c3)nc21 [Savolitinib] + CN(CC[C@H](CSC1=CC=CC=C1)NC2=C(C=C(C=C2)S(=O)(=O)NC(=O)C3=CC=C(C=C3)N4CCC(CC4)[C@H](C5=CC=CC=C5C6=CC=C(C=C6)Cl)O)S(=O)(=O)C(F)(F)F)CCO [AZD4320] (first compound max 1 µM, 7x7, partner max 1 µM) |  |  | 0.546 | 0.753 | 1 |  |  | 0.305 |  |  | 0.256 | 0.184 | 0.222 |  |  |  | 0.262 | 0.212 |  |  |
| Cc1cc2ncnn2cc1Nc1ncc2c(n1)n(C1CCOCC1)c(=O)n2C [AZD7648] + C[C@@H]1COCCN1C2=NC(=NC(=C2)C3(CC3)[S@](=N)(=O)C)C4=C5C=CNC5=NC=C4 [AZD6738] (first compound max 10 µM, 7x7, partner max 10 µM) | 0.766 | 0.204 | 0.677 | 0.677 | 0.691 | 0.788 | 0.768 | 0.844 | 0.759 | 0.809 | 0.499 | 0.425 | 0.793 | 0.503 | 1 | 0.757 | 0.509 | 0.734 | 0.526 | 0.735 |
| N#Cc1cnc(Nc2cc(NC[C@H]3CNCCO3)c(C(F)(F)F)cn2)cn1 [SRA737] + C=CCn1c(=O)c2cnc(Nc3ccc(N4CCN(C)CC4)cc3)nc2n1-c1cccc(C(C)(C)O)n1 [AZD1775] (first compound max 10 µM, partner max 1 µM) | 0.91 | 0.114 |  |  |  | 0.88 | 0.562 |  | 0.912 | 0.635 |  |  |  | 0.644 | 0.989 | 0.762 |  |  | 0.271 | 0.812 |
| N#Cc1cnc(Nc2cc(NC[C@H]3CNCCO3)c(C(F)(F)F)cn2)cn1 [SRA737] + O=c1[nH]cc(F)c(=O)[nH]1 [5-Fluorouracil] (first compound max 10 µM, 7x7, partner max 20 µM) | 0.815 | 0.23 |  |  |  | 0.51 | 0.41 |  | 0.935 | 0.402 |  |  |  | 0.217 | 0.965 | 0.538 |  |  | 0.0891 | 0.839 |
| CN(CCO)CC[C@H](CSc1ccccc1)Nc1ccc(S(=O)(=O)NC(=O)c2ccc(N3CCC([C@@H](O)c4ccccc4-c4ccc(Cl)cc4)CC3)cc2)cc1S(=O)(=O)C(F)(F)F [AZD4320] + CC(=O)O[C@H]1C(=O)[C@@]2(C)[C@H]([C@H](OC(=O)c3ccccc3)[C@]3(O)C[C@H](OC(=O)[C@H](O)[C@@H](NC(=O)c4ccccc4)c4ccccc4)C(C)=C1C3(C)C)[C@]1(OC(C)=O)CO[C@@H]1C[C@@H]2O [Paclitaxel] (first compound max 1 µM, 7x7, partner max 3 µM) | 0.967 | 0.587 |  |  |  |  | 0.955 |  | 1 | 1 |  |  |  | 0.98 | 1 | 0.973 |  |  | 0.894 | 0.671 |
| N#Cc1cnc(Nc2cc(NC[C@H]3CNCCO3)c(C(F)(F)F)cn2)cn1 [SRA737] + Nc1ccn([C@@H]2O[C@H](CO)[C@@H](O)C2(F)F)c(=O)n1 [Gemcitabine] (first compound max 10 µM, 7x7, partner max 0.3 µM) | 0.882 | 0.19 |  |  |  | 0.72 | 0.881 |  | 1 | 0.946 |  |  |  | 0.676 | 0.993 | 0.685 |  |  | 0.457 | 0.792 |
| COc1nnc2ccc(N3CCC(c4ccc(OCCN5CCN(C)C(=O)[C@H]5C)cc4)CC3)nn12 [AZD5153] + CN(CC[C@H](CSC1=CC=CC=C1)NC2=C(C=C(C=C2)S(=O)(=O)NC(=O)C3=CC=C(C=C3)N4CCC(CC4)[C@H](C5=CC=CC=C5C6=CC=C(C=C6)Cl)O)S(=O)(=O)C(F)(F)F)CCO [AZD4320] (first compound max 1 µM, 7x7, partner max 1 µM) |  |  | 0.909 | 0.557 | 1 |  |  | 0.915 |  |  | 0.266 | 0.545 | 0.343 |  |  |  | 0.634 | 0.507 |  |  |
| CN(CCO)CC[C@H](CSc1ccccc1)Nc1ccc(S(=O)(=O)NC(=O)c2ccc(N3CCC([C@@H](O)c4ccccc4-c4ccc(Cl)cc4)CC3)cc2)cc1S(=O)(=O)C(F)(F)F [AZD4320] + CCN(CCO)CCCOc1ccc2c(Nc3cc(CC(=O)Nc4cccc(F)c4)[nH]n3)ncnc2c1 [AZD2811] (first compound max 1 µM, 7x7, partner max 1 µM) | 0.122 | 0.496 | 0.681 | 0.487 | 1 | 0.373 | 0.443 | 0.64 | 0.995 | 1 | 0.248 | 0.256 | 0.853 | 0.154 | 0.785 |  | 0.215 | 0.117 | 0.424 | 0.136 |
| CN(CCO)CC[C@H](CSc1ccccc1)Nc1ccc(S(=O)(=O)NC(=O)c2ccc(N3CCC([C@@H](O)c4ccccc4-c4ccc(Cl)cc4)CC3)cc2)cc1S(=O)(=O)C(F)(F)F [AZD4320] + Nc1ccn([C@@H]2O[C@H](CO)[C@@H](O)C2(F)F)c(=O)n1 [Gemcitabine] (first compound max 1 µM, 7x7, partner max 0.3 µM) | 0.608 | 0.32 |  |  |  | 0.854 | 0.925 |  | 0.906 | 0.995 |  |  |  | 0.51 | 0.995 | 0.633 |  |  | 0.408 | 0.476 |
| Cc1cc2ncnn2cc1Nc1ncc2c(n1)n(C1CCOCC1)c(=O)n2C [AZD7648] + COc1cc([C@@H]2c3cc4c(cc3[C@@H](O[C@@H]3O[C@@H]5CO[C@@H](C)O[C@H]5[C@H](O)[C@H]3O)[C@H]3COC(=O)[C@H]23)OCO4)cc(OC)c1O [Etoposide] (first compound max 10 µM, 7x7, partner max 10 µM) | 0.794 | 0.547 |  |  |  | 0.822 | 0.699 |  | 0.617 | 0.855 |  |  |  | 0.301 | 1 | 0.546 |  |  | 0.326 | 0.648 |
